This passage reports Km results from paper PMC8565777, “The chitinolytic activity of the Curtobacterium sp. isolated from field-grown soybean and analysis of its genome sequence” (PLoS ONE, 2021).

This assay has as its system T1, GH18 chitinase from Curtobacterium sp. GD1 (carbohydrate binding protein, CBP).
T1 construct: native secreted enzyme, partially purified from chitin-induced culture supernatant (two major bands); 429 aa precursor, predicted 31 aa signal peptide removed; genome has 3 GH18 genes
Kind of assay: colorimetric p-nitrophenol release at […] nm, Lineweaver-Burk. The class given is biochemical. The settings on record: 100 mmol/L sodium phosphate pH 7.0, 37 °C, partially purified enzyme; substrate range 3-90 mmol/L; substrate of the Km not restated beside the value; unit printed as mmol (mmol/L presumably meant).

With `CC(=O)N[C@H]1[C@H](Oc2ccc([N+](=O)[O-])cc2)O[C@H](CO)[C@@H](O[C@@H]2O[C@H](CO)[C@@H](O[C@@H]3O[C@H](CO)[C@@H](O)[C@H](O)[C@H]3NC(C)=O)[C@H](O)[C@H]2NC(C)=O)[C@@H]1O` [p-nitrophenyl-β-D-N,N’,N”-triacetylchitotriose], the Km came out at 10 mmol.
